Results from US7314858B2, “Retrocyclins: antiviral and antimicrobial peptides” (priority 2001, dated 2008).
Entries after “also recorded” stand apart in the source; their conditions may differ. Where a SMILES comes first, the peptide text is derived from it. Bridges are numbered along the chain shown (N, C = ends).

How the values were obtained:
[1] = test system: ME-180 cervical carcinoma cells; conditions: 100 μg/ml
HIV-1 strain IIIB = experiment: HIV-1 IIIB infection of H9 cells, p24 antigen ELISA; assay type: cell-based
Method: FIG. 1. Circular minidefensins reduce HIV-1 infection of H9 cells. HIV-I strain IIIB (MOI=10^−2) was incubated with 2.5×10^5 H9 cells in the presence or absence of 20 μg/ml RTD-1, RTD-2 or RTD-3. p24 antigen release was monitored by ELISA on days 3, 6, and 9. Assay sensitivity=10 pg/ml.
Immortalized CD4^+ H9 cells, which are permissive for infection with this strain, were maintained in RPMI supplemented with 10% heat-inactivated fetal calf serum (FCS), 10 mM HEPES, 2 mM glutamine, 100 U of penicillin/ml, and 10 μg of streptomycin/ml (R10 media). Cells (2.5×10^5/100 μl) were incubated with virus (multiplicity of infection (MOI)=10^−2) in the presence or absence of 20 μg/ml RTD-1, RTD-2 or RTD-3 for 3 hrs at 37° C./5% CO2. The cells were washed in R10 media, seeded in 48-well tissue culture plates in 1 ml R10 media, and incubated at 37° C./5% CO2 for 9 days. Aliquots of cell supernatant were removed at the specified time points and analyzed by a sensitive ELISA (DuPont NEN) that quantitates p24 antigen of HIV-1. The three circular rhesus minidefensins were similarly active, inhibiting HIV-1 by 100-1000 fold by 9 days post-inoculation (note the logarithmic scale).
Either HIV-1-permissive H9 cells were used as targets, or primary CD4^+ lymphocytes from HIV-1-seronegative donors generated from freshly purified peripheral blood mononuclear cells (PBMC) stimulated with a CD3-CD8 bispecific monoclonal antibody. After approximately 7 days, when 98% of these cells co-expressed CD3 and CD4, they were infected with HIV-1 with or without retrocyclin or other test peptide. These cells were maintained in RPMI containing 10% FCS supplemented with 2 mM glutamine, 100 U of penicillin/ml, 10 μg of streptomycin/ml, and 50 U of interleukin 2/ml (R10-50 media).
Mature retrocyclin was prepared by a three-step process.

H9 cells = experiment: MTT cytotoxicity assay; assay type: cell-based, human; conditions: 100 μg/ml
Method: (§1) FIG. 8. Cytotoxicity of antimicrobial peptides against H9 cells. Retrocyclin, RTD-1 and PG-1 (a porcine-derived peptide with anti-HIV-1 activity) were tested for cytotoxicity using an MTT assay for cell proliferation. Note that the EC50 of Retrocyclin and RTD-1 were >100 μg/ml, concentrations well above their antiviral concentration.
(§2) Retrocyclin is not cytotoxic. […] Retrocyclin was not hemolytic for human erythrocytes.

MTT cytotoxicity assay = assay type: cell-based, human; conditions: human, H9 cells
Method: as §1, §2

L. monocytogenes EGD = experiment: Two-stage radial diffusion assay; assay type: cell-based, Listeria monocytogenes
Method: (§3) FIG. 4. Effect of salt on antibacterial activity of circular minidefensins. Human retrocyclin and monkey RTD-1 were tested against our standard lab stains: E. coli ML-35p, P. aeruginosa MR 3007, L. monocytogenes EGD, and S. aureus 930918. The bars show MIC values±SEM values that resulted from 3-6 radial diffusion assays per organism and assay condition.
(§4) The effects of NaCl on the antimicrobial activity of retrocyclin and RTD-1, from two-stage radial diffusion assays, are compared in FIG. 4.

HSV-2 = experiment: HSV inactivation microplate assay on ME-180 cells (MTT); assay type: cell-based; conditions: 2-50 μg/ml, 2 hrs with virus, 72 hrs culture
Method: (§5) FIG. 14. Inactivation of HSV-1 and HSV-2 by retrocyclin and RC-101. Retrocyclin (left panel) and RC-101 (right panel) at the indicated concentrations were incubated with herpes simplex virus, type 1 (HSV-1) or HSV-2 for 2 hrs and then added to ME-180 cell monolayers. Cells were incubated at 37° C. for 72 hrs, and cytotoxicity was measured with an MTT kit.
(§6) Some retrocyclins are slightly active against herpes simplex virus (HSV). To determine if the activity of retrocyclin against HIV-1 was specific or representative of a more global antiviral effect, it was tested its ability to prevent HSV infection in vitro. A quantitative microplate assay was used to screen retrocyclin and retrocyclin-congeners for their ability to inactivate HSV type 1 (HSV-1) and HSV-2. The assay utilized small amounts of peptide and simultaneously evaluated for peptide-induced cytotoxicity. In brief, final peptide concentrations of 2-50 μg/ml were incubated with virus stocks for 2 hrs and added directly to ME-180 human cervical carcinoma cells. Cultures were incubated at 37° C. for 72 hrs and cytotoxicity was measured using a 3-(4,5-dimethylthiazon-2-yl)-2,5-diphenyltetrazolium bromide (MTT) cell proliferation kit (Boehringer-Mannheim, Germany). Calculations to assess antiviral activity and compute “percent protection” are delineated in (90).

HIV-IIIB = experiment: Direct inactivation of HIV-1 virions (preincubation with virus, dilution, infection of H9 cells); assay type: cell-based; conditions: 200 μg/ml, 30 min, then diluted 190-fold
Method: FIG. 12. […] Retrocyclin (2-200 μg/ml) was incubated with HIV-IIIB (MOI=10^−2) diluted in R10 media prior to infecting H9 cells. p24 antigen release was measured by ELISA. Limit of detection=10 pg/ml.
To determine if retrocyclin directly inactivated HIV-1 virions, HIV-IIIB (MOI 10^−2) was incubated with 2 μg/ml, 20 μg/ml, or 200 μg/ml retrocyclin for 30 min at room temperature in R10 media. […] Viral replication was measured by collecting supernatant for 9 days at 3 day intervals to quantify HIV-1 p24 antigen by ELISA (FIG. 12). […] In this respect, the actions of retrocyclin are different from the direct inactivation of herpes simplex virus previously observed with human and rabbit α-defensins.

[2] = Preliminary surface plasmon resonance, sphingolipid binding; conditions: preliminary SPR
E. coli ML-35p = experiment: Two-stage radial diffusion assay; assay type: cell-based, Escherichia coli
Method: as §3, §4

HSV-1 = experiment: HSV inactivation microplate assay on ME-180 cells (MTT); assay type: cell-based, herpes simplex virus, type 1; conditions: 2-50 μg/ml, 2 hrs with virus, 72 hrs culture
Method: as §5, §6

Row | Structure (SMILES) | cytotoxicity (MTT) [1] | concentration required for complete protection against HIV-1 infection (HIV-1 strain IIIB) [µg/mL] | inhibition of HIV-1 replication (p24) (HIV-1 strain IIIB; H9 cells, IIIB (X4), peptide 10-20 μg/ml) | antiviral activity (HIV-1 strain IIIB; at <2 μg/ml, n=5) | cytotoxicity (MTT) (H9 cells) | EC50 (MTT cytotoxicity assay) [µg/mL] | effect of salt on antimicrobial activity (L. monocytogenes EGD; hypersalinity (175 mM NaCl)) | antimicrobial activity (L. monocytogenes EGD; physiological (100 mM) NaCl) | protection against HSV-2 (HSV-2) | HIV titer after incubation of virus with peptide (HIV-IIIB) | hemolysis (human erythrocytes) | binding to sphingolipids (galactosylceramide) [2] | effect of salt on antimicrobial activity (E. coli ML-35p; hypersalinity (175 mM NaCl)) | antimicrobial activity (E. coli ML-35p; physiological (100 mM) NaCl) | protection against HSV-1 (HSV-1)
1 | CC[C@H](C)[C@@H]1NC(=O)CNC(=O)[C@H](CCCNC(=N)N)NC(=O)CNC(=O)[C@@H]2CSSC[C@H](NC1=O)C(=O)N[C@@H](CCCNC(=N)N)C(=O)N[C@H]1CSSC[C@H](NC(=O)[C@H](CCCNC(=N)N)NC(=O)[C@@H]3CSSC[C@H](NC(=O)[C@H]([C@@H](C)CC)NC1=O)C(=O)NCC(=O)N[C@@H](CCCNC(=N)N)C(=O)NCC(=O)N[C@@H]([C@@H](C)CC)C(=O)N3)C(=O)N[C@@H]([C@@H](C)CC)C(=O)N2 [RC-100, Retrocyclin] (cyclo(GICRCICGRGICRCICGR); disulfide 3-16, 5-14, 7-12) | little to no cytotoxicity | 10 | complete suppression; also recorded: antiviral | no significant antiviral activity | little to no cytotoxicity | > 100 | only modestly inhibitory | strong activity | modest protection | not reduced | not hemolytic | binds with high affinity | only modestly inhibitory | strong activity | not HSV-1
2 | CC[C@H](C)[C@@H]1NC(=O)CNC(=O)[C@H](CCCCN)NC(=O)CNC(=O)[C@@H]2CSSC[C@H](NC1=O)C(=O)N[C@@H](CCCNC(=N)N)C(=O)N[C@H]1CSSC[C@H](NC(=O)[C@H](CCCNC(=N)N)NC(=O)[C@@H]3CSSC[C@H](NC(=O)[C@H]([C@@H](C)CC)NC1=O)C(=O)NCC(=O)N[C@@H](CCCNC(=N)N)C(=O)NCC(=O)N[C@@H]([C@@H](C)CC)C(=O)N3)C(=O)N[C@@H]([C@@H](C)CC)C(=O)N2 [RC-101, R9K-Retrocyclin] |  |  |  |  |  |  |  |  | nearly completely protective |  |  |  |  |  | modestly protective
